Results: patent publication US6864275B1, “Compounds and methods for use thereof in the treatment of cancer” (UAF Technologies and Research, LLC, priority 1997, dated 2005)

Key:
[1] = test system: B16 murine melanoma; assay: MTT cell growth inhibition, B16 melanoma cells; assay type: cell-based; conditions: 3-6 days incubation
Description: (§1) The following cell culture tests were performed to test the toxicity of benzimidazole derivative compounds of the present invention on colon and melanoma tumor cells. The viability of the cells were tested by looking at MTT (3-[4,5-dimethylthiazol-2-yl]-2,5-diphenyltetrazolium bromide) reduction. MTT assay is a well known measure of cell viability.
(§2) The colon tumor cells (HT29) and the melanoma cells (B16 murine melanoma) were seeded (1000-2000 cells) into each well of a 96-well microtiter plate and allowed to grow. Twenty-four hours later, increasing concentrations of each benzimidazole derivative were added to the plates and the cells were allowed to incubate for 3-6 days in the presence of the drugs. MTT reagent was then added to the wells and allowed to incubate for 4 hours at 37° C., after which the formazan metabolite was solubilized with acidic isopropanol and the absorbance was read. Experimental controls included blank wells to which no cells were added (zero point of formazan absorbance) and control wells to which no drug was added (highest level of formazan absorbance). Each drug concentration was tested in duplicate and the resulting average absorbance was plotted against drug concentration using the EZ-ED50 computer program on a personal computer interfaced to the microtiter plate reader. […] The IC50 value is then derived from this equation by EZ-ED50.

[2] = test system: colon tumor cells (HT29); assay: MTT cell growth inhibition, HT29 colon tumor cells; assay type: cell-based; conditions: 3-6 days incubation, read-out: IC50 Human Colon Carcinoma
Description: as §1, §2

[3] = test system: Tubulin; assay: Microtubule inhibition assay (tubulin polymerization, absorbance at 350 nm); assay type: biochemical, bovine; conditions: compound at 2 μM, after 30 minutes
Description: The benzimidazole derivatives of this invention were evaluated for their ability to inhibit formation of microtubules, following the procedure of Luduena, R. F. and M. C. […] Microtubule polymerization was followed by performing the reaction in a cuvette and monitoring UV absorbance at 350 nm, allowing direct visualization of the time course of the polymerization.

[4] = test system: B16 murine melanoma; assay: In vivo B16 murine melanoma tumor model; design: species or system B6D2F1 mice; conditions: qd × 5; for T/C (%): mean survival treated/control; for # of Survivors: survived at least 60 days
Description: B6D2F1 mice received interperitoneally (i.p.) inocula of B16 murine melanoma brei prepared from B16 tumors growing s.c. in mice (Day 0). On Day 1, mice were randomized into groups, with 20 mice in the control group and 10 mice in each treated group (except there were 8 mice in selected groups given compound 3-13. Treatment with drugs or vehicle control was started on Day 1.
The mean survival times of all groups were calculated and results were expressed as mean survival of treated mice/mean survival of control mice (T/C)×100%. A “T/C” value of 150 means that the mice in the treated group lived 50% longer than those of the control group; this is sometimes referred to as the increase in life span, or ILS value.
Mice that survived for at least 60 days were considered to be long-term survivors, or cures, in the B16 model. The universally accepted cut-off for activity in this model, which has been used for years by the NCI, is T/C=125. Conventional use of B16 over the years has set the following levels of activity:
T/C>300, with long-term survivors=excellent, curative activity.

IC50 [1] | IC50 [2] | Structure (SMILES) | Tubulin Polymerization Inhibition, % Inhibition [3] | other results
6600 nM | 7000 nM | COC(=O)Nc1nc2ccc(NC(=O)CC(C)CC(C)(C)C)cc2[nH]1 (stereo not drawn) [Cpd. No. 5-1] | none | 
530000 nM | 398000 nM | CCN(CC)CCCNC(=O)c1ccc2nc(NC(=O)OC)[nH]c2c1 [Cpd. No. 2-1] | 24% | 
2600 nM |  | COC(=O)Nc1nc2ccc(C(=O)OCCOCCO)cc2[nH]1 [Cpd. No. 3-5] | 10% | 
210 nM | 54 nM | COC(=O)Nc1nc2ccc(C(=O)OCCCCl)cc2[nH]1 [3-9] | none | 
< 1 nM | 13 nM | COC(=O)Nc1nc2ccc(C(=O)OCCC(C)CC(C)(C)C)cc2[nH]1 (stereo not drawn) [3-20] | 35% | 
970 nM | 300 nM | COC(=O)Nc1nc2ccc(C(=O)OCCF)cc2[nH]1 [3-17] | 8% | 
82 nM | 36 nM | COC(=O)Nc1nc2ccc(C(=O)OCCOCCCl)cc2[nH]1 [3-2] | 14% | 
320 nM | 230 nM | COC(=O)Nc1nc2ccc(C(=O)N(C)C3CCCCC3)cc2[nH]1 [Cpd. No. 2-16] | 39% | 
84 nM | 27 nM | CCOCCOCCOC(=O)c1ccc2nc(NC(=O)OC)[nH]c2c1 [Cpd. No. 3-4] | 12% | 
70400 nM | 48600 nM | COC(=O)Nc1nc2ccc(C(=O)OCCN(C)C)cc2[nH]1 [Cpd. No. 3-8] | none | 
990 nM | 2100 nM | COC(=O)Nc1nc2ccc(C(=O)OC(CCl)CCl)cc2[nH]1 [Cpd. No. 3-12] | 11% | 
248000 nM | 107000 nM | COC(=O)Nc1nc2ccc(C(=O)OCCCCCO)cc2[nH]1 [3-11] | 50% | 
588000 nM | 314000 nM | COC(=O)Nc1nc2ccc(C(=O)OCC(F)(F)C(F)(F)F)cc2[nH]1 [3-14] | 23% | 
840 nM | 500 nM | COC(=O)Nc1nc2ccc(C(=O)NC(C)CC(C)C)cc2[nH]1 (stereo not drawn) [Cpd. No. 2-6] | 12% | 
220 nM | 59 nM | C=CCOC(=O)c1ccc2nc(NC(=O)OC)[nH]c2c1 [3-3] | 42% | 
1200 nM | 2100 nM | COC(=O)Nc1nc2ccc(C(=O)OC(CBr)CBr)cc2[nH]1 [3-18] | none | 
271000 nM | 25400 nM | COC(=O)Nc1nc2ccc(C(=O)NNc3ccccc3)cc2[nH]1 [Cpd. No. 2-12] | 50% | 
1000 nM | 600 nM | COC(=O)Nc1nc2ccc(C(=O)OCC=CCO)cc2[nH]1 [3-10] | none | 
403000 nM | 158000 nM | COC(=O)Nc1nc2ccc(C(=O)NCCN(C)C)cc2[nH]1 [Cpd. No. 2-14] | none | 
77 nM | 46 nM | COC(=O)Nc1nc2ccc(C(=O)OCCC(C)CCC=C(C)C)cc2[nH]1 (stereo not drawn) [3-21] | 2% | 
62 nM | 30 nM | COC(=O)Nc1nc2ccc(C(=O)OC(C)C3CC3)cc2[nH]1 (stereo not drawn) [3-16] | 44% | 
85 nM | 33 nM | COC(=O)Nc1nc2ccc(C(=O)OCc3ccccc3)cc2[nH]1 [3-7] | 26% | 
250 nM | 170 nM | COC(=O)Nc1nc2ccc(OC(=O)c3cc(OC)c(OC)c(OC)c3)cc2[nH]1 [Cpd. No. 4-1] | 2% | 
940 nM | 610 nM | COC(=O)Nc1nc2ccc(C(=O)OC(CF)CF)cc2[nH]1 [3-15] | 45% | 

More lines, now with the values behind:

Structure (SMILES) | IC50 [1] | IC50 [2] | Tubulin Polymerization Inhibition, % Inhibition [3] | other results
COC(=O)Nc1nc2ccc(C(=O)Nc3cc(OC)c(OC)c(OC)c3)cc2[nH]1 [2-15] | 6100 nM | 4200 nM | 5% | 
CCCN(CCC)C(=O)c1ccc2nc(NC(=O)OC)[nH]c2c1 [2-18] | 9400 nM | 3100 nM | 42% | 
COC(=O)Nc1nc2ccc(C(=O)NCCCN(C)C)cc2[nH]1 [2-10] | 553000 nM | 447000 nM | 5% | 
COC(=O)Nc1nc2ccc(C(=O)NCC3CCCO3)cc2[nH]1 (stereo not drawn) [2-4] | 47200 nM | 35700 nM | 36% | 
CCC(C)COC(=O)c1ccc2nc(NC(=O)OC)[nH]c2c1 (stereo not drawn) [3-19] | 48 nM | 12 nM | 28% | # of Toxic Deaths ([4]; 20 mg/kg/i.v): 0; Weight Change (Day 12) ([4]; 20 mg/kg/i.v): +7.8%; T/C (%) ([4]; 20 mg/kg/i.v): 106%; # of Survivors ([4]; 20 mg/kg/i.v): 0; # of Toxic Deaths ([4]; 40 mg/kg/i.v): 6; Weight Change (Day 12) ([4]; 40 mg/kg/i.v): +2.5%; T/C (%) ([4]; 40 mg/kg/i.v): 73%; # of Survivors ([4]; 40 mg/kg/i.v): 0; # of Toxic Deaths ([4]; 50 mg/kg/i.p): 0; Weight Change (Day 12) ([4]; 50 mg/kg/i.p): +9.6%; T/C (%) ([4]; 50 mg/kg/i.p): 119%; # of Survivors ([4]; 50 mg/kg/i.p): 0; # of Toxic Deaths ([4]; 100 mg/kg/i.p): 0; Weight Change (Day 12) ([4]; 100 mg/kg/i.p): +10.8%; T/C (%) ([4]; 100 mg/kg/i.p): 124%; # of Survivors ([4]; 100 mg/kg/i.p): 0
COCCNC(=O)c1ccc2nc(NC(=O)OC)[nH]c2c1 [2-11] | 30500 nM | 17100 nM | 19% | 
COC(=O)Nc1nc2c(OC(=O)c3cc(OC)c(OC)c(OC)c3)cccc2[nH]1 [Cpd. No. 1-2] | 14000 nM | 26300 nM | 35% | 
COC(=O)Nc1nc2ccc(C(=O)NCCC(C)C)cc2[nH]1 [2-5] | 5900 nM | 5100 nM | 37% | 
COC(=O)Nc1nc2c(OC(=O)CC(C)CC(C)(C)C)cccc2[nH]1 (stereo not drawn) [Cpd. No. 1-1] | 20100 nM | 15800 nM | 38% | 
COC(=O)Nc1nc2ccc(C(=O)NCCN3CCOCC3)cc2[nH]1 [2-2] | 80500 nM | 121000 nM | 11% | 
COC(=O)Nc1nc2ccc(C(=O)NCCC(C)(C)C)cc2[nH]1 [2-7] | 410 nM | 420 nM | 43% | 
CCC(C)NC(=O)c1ccc2nc(NC(=O)OC)[nH]c2c1 (stereo not drawn) [2-3] | 2900 nM | 1600 nM | 26% | 
CCC(C)CNC(=O)c1ccc2nc(NC(=O)OC)[nH]c2c1 (stereo not drawn) [2-8] | 5000 nM | 4900 nM | none | 
CCCCN(C)C(=O)c1ccc2nc(NC(=O)OC)[nH]c2c1 [2-17] | 4600 nM | 2500 nM | none | 
CCC(CC)NC(=O)c1ccc2nc(NC(=O)OC)[nH]c2c1 [2-9] | 370 nM | 228000 nM | 16% | 
COC(=O)Nc1nc2ccc(C(=O)Nc3ccccc3O)cc2[nH]1 [2-13] | 2800 nM | 2300 nM | 27% | 
